Measured values as given in US9101559B2, “Leukemic cell CNS infiltration controlled by notch-induced chemotaxis” (New York University, priority 2009, dated 2015).

What was measured:
Hes1 = test: Transcription of Notch target gene Hes1 in CEM cells after GSI treatment; format: cell-based, human; settings: CEM cells (T-ALL cell line), 1 nM, three days
Method: (§1) FIGS. 9A-9D show γ-secretase-inhibitor mediated suppression of CCR7 expression. CEM cells (T-ALL cell line) were treated with either Compound E (Comp E) (1 nM) or DBZ (1 nM) for three days. FIG. 9A is a panel of western blots showing the disappearance of the activated N1-IC protein in CEM cells following γ-secretase inhibitor (GSI) treatment. β-actin immunoreactivity is shown as a loading control. […] Error bars define standard deviation from mean.
(§2) RNA was isolated using RNeasy Plus Mini Kit (Qiagen, Valencia, Calif.) columns and used to synthesize cDNA with the SuperScript First-Strand Kit (Invitrogen, Carlsbad, Calif.). Real time PCR was performed using iQ SYBR Green Supermix and an iCycler (Bio-Rad, Hercules, Calif.). Relative expression was determined from cycle threshold (CT) values and was normalized using β-actin as an internal control.

Dtx1 = test: Transcription of Notch target gene Dtx1 in CEM cells after GSI treatment; format: cell-based, human; settings: CEM cells (T-ALL cell line), 1 nM, three days
Method: as §1, §2

activated N1-IC protein = test: Western blot of activated N1-IC protein in CEM cells after γ-secretase inhibitor treatment; format: cell-based, human; settings: CEM cells (T-ALL cell line), 1 nM, three days
Method: as §1

human CCR7 = test: CCR7 expression in T-ALL cell lines after GSI treatment; format: cell-based; settings: for transcription of human CCR7: CEM cells (T-ALL cell line), 1 nM, three days; for CCR7 mRNA and protein expression: T-ALL cell lines, addition of γ-secretase inhibitors
Method: as §1, §2
To further correlate Notch 1 activation and CCR7 expression, T-ALL cell lines harboring Notch 1 activating mutations and primary T-ALL samples were analyzed. Strikingly, surface CCR7 was expressed in 80% (4/5) of T-ALL lines (FIG. 8A) and in 73% (8/11) of peripheral blood from primary T-ALL samples (FIG. 8B; #114, #358, and #479). […] To obtain a preliminary estimate of the importance of CCR7 expression in CNS infiltration, two human T-ALL lines were selected (FIG. 8A), one expressing CCR7 (CEM/CCR7^pos) and one deficient in CCR7 expression (DND41/CCR7^neg). Both cell lines were infected using a luciferase-expressing lentivirus. To study disease induction and progression, the cells were transplanted into lymphoid Rag2−/− γc−/− host animals. Transplantation of an identical number of leukemia cells led to distinct survival patterns as host animals which received CEM/CCR7^pos cells succumbed to the leukemic disease earlier that the ones receiving the DND41/CCR7^neg cells (FIG. 3A). Using live animal bioluminescent imaging, a higher tumor load in mice that received the […] cell line was observed (FIG. 3B). Most importantly, the brain and spinal cord of CEM/CCR7^pos-transplanted hosts (but not the DND41/CCR7^neg) were infiltrated by T-ALL cells (FIG. 3C). Further histopathological analysis confirmed the localization of the infiltrating cells in leptomeningeal spaces (FIG. 3D).

Structure (SMILES) | transcription of Hes1 (Hes1) | transcription of Dtx1 (Dtx1) | activated N1-IC protein (western blot) (activated N1-IC protein) | transcription of human CCR7 (human CCR7) | CCR7 mRNA and protein expression (human CCR7)
C[C@H](NC(=O)Cc1cc(F)cc(F)c1)C(=O)N[C@H]1N=C(c2ccccc2)c2ccccc2N(C)C1=O [Compound E] | efficiently suppressed | efficiently suppressed | disappearance | suppressed | significant down-regulation
C[C@H](NC(=O)Cc1cc(F)cc(F)c1)C(=O)N[C@@H]1C(=O)N(C)c2ccccc2-c2ccccc21 [DBZ] | efficiently suppressed | efficiently suppressed | disappearance | suppressed | significant down-regulation
